Experimental data taken from US20260184707A1, “PHARMACEUTICAL COMPOUNDS FOR THE TREATMENT OF COMPLEMENT MEDIATED DISORDERS” (ALEXION PHARMACEUTICALS, INC., priority 2022, published 2026).

Target: T1, Human complement C1s enzyme (Homo sapiens, UniProt P09871)
T1 construct: purified from human serum, Complement Technology, Inc; purchased Complement Technology, Inc; host or cells: human serum (plasma-derived native protein)
T1 sequence (P09871 438-688 limits assumed): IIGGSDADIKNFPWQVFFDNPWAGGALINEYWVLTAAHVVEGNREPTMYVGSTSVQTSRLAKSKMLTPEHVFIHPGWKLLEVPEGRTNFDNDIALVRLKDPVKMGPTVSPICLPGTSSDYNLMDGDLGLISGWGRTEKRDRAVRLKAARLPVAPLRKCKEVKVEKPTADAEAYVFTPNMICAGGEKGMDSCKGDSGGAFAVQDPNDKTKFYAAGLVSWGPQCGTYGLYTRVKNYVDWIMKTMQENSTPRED
T1 sequence (P09871 16-437 partner limits assumed): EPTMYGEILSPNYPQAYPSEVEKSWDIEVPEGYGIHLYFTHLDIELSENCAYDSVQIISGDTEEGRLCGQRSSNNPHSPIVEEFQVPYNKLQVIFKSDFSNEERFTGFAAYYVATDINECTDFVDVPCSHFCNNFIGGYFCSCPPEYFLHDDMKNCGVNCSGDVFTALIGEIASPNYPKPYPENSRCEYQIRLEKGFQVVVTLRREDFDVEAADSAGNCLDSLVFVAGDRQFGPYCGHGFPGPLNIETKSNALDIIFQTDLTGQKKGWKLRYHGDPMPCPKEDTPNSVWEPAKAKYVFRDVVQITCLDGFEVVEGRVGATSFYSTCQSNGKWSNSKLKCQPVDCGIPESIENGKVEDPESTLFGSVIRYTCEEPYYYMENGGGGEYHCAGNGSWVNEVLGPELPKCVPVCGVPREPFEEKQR
Assay: Human C1s enzyme assay
Assay type: biochemical
Conditions: human complement C1s enzyme 1.16 nM, substrate Z-L-Lys-SBzl, A405; read-out: IC50 (Stars)
In short: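 Thioesterase activity followed colorimetrically (DTNB, A405, 30-s reads) using 100 μM Z-L-Lys-SBzl substrate. Enzyme, human serum-derived C1s at 1.16 nM final, was incubated with test compound for 5 min, room temperature, pH 7.5 Tris buffer with 1 M NaCl. Rate-versus-concentration data fitted by nonlinear regression for IC50.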

SMILES	IC50 [nM]
Cc1ccc(F)c(-c2ncc(N[C@H](C)c3ccc4oc5ccccc5c4c3)c(=O)n2CC(=O)NCc2cc3cnccc3[nH]2)c1 [Compound 438, (R)-N-((1H-pyrrolo[3,2-c]pyridin-2-yl)methyl)-2-(5-((1-(dibenzo[b,d]furan-2-yl)ethyl)-amino)-2-(2-fluoro-5-methyl-phenyl)-6-oxopyrimidin-1(6H)-yl)acetamide]	< 100
Cc1ccc(F)c(-c2ncc(NCCCc3ccccc3)c(=O)n2CC(=O)NCc2cc3cnccc3[nH]2)c1 [Compound 439, N-((1H-pyrrolo[3,2-c]pyridin-2-yl)methyl)-2-(2-(2-fluoro-5-methylphenyl)-6-oxo-5-((3-phenylpropyl)amino)pyrimi-din-1(6H)-yl)acetamide]	< 100
C[C@@H](Nc1ncc(N2CCCC2)n(CC(=O)NCc2cc3cnccc3[nH]2)c1=O)c1ccc2oc3ccccc3c2c1 [Compound 440, (R)-N-((1H-pyrrolo[3,2-c]pyridin-2-yl)methyl)-2-(3-((1-(dibenzo[b,d]furan-2-yl)ethyl)-amino)-2-oxo-6-(pyrrolidin-1-yl)pyrazin-1(2H)-yl)acetamide]	100 to 1000
CC(C)c1cnc(N[C@H](C)c2ccc3oc4ccccc4c3c2)c(=O)n1CC(=O)NCc1cc2cnccc2[nH]1 [Compound 442, (R)-N-((1H-pyrrolo[3,2-c]pyridin-2-yl)methyl)-2-(3-((1-(dibenzo[b,d]furan-2-yl)ethyl)-amino)-6-isopropyl-2-oxopyr-azin-1(2H)-yl)acetamide]	< 100
O=C(Cn1c(-c2ccccc2F)cnc(N[C@H](CF)c2ccc3oc4ccccc4c3c2)c1=O)NCc1cc2cnccc2[nH]1 [Compound 443, (S)-N-((1H-pyrrolo[3,2-c]pyridin-2-yl)methyl)-2-(3-((1-(dibenzo[b,d]furan-2-yl)-2-fluoroethyl)amino)-6-(2-fluorophenyl)-2-oxopyrazin-1(2H)-yl)acetamide]	< 100
C[C@@H](Nc1ncc(N2CCNCC2)n(CC(=O)NCc2cc3cnccc3[nH]2)c1=O)c1ccc2oc3ccccc3c2c1 [Compound 444, (R)-N-((1H-pyrrolo[3,2-c]pyridin-2-yl)methyl)-2-(3-((1-(dibenzo[b,d]furan-2-yl)ethyl)-amino)-2-oxo-6-(piperazin-1-yl)pyrazin-1(2H)-yl)acetamide]	< 100
C[C@@H](Nc1cnc(N2CCCCC2)n(CC(=O)NCc2cc3cnccc3[nH]2)c1=O)c1ccc(-c2ccccc2)s1 [Compound 445, (R)—N-((1H-Pyrrolo[3,2-c]pyridine-2-yl)methyl)-2-(6-oxo-5-((1-(5-phenylthiophen-2-yl)ethyl)amino)-2-(piperidin-1-yl)pyrimidin-1(6H)-yl)acetamide]	< 100
C[C@@H](Nc1cnc(-c2cscn2)n(CC(=O)NCc2cc3cnccc3[nH]2)c1=O)c1ccc(-c2ccccc2F)cc1 [Compound 446, (R)-N-((1H-pyrrolo[3,2-c]pyridin-2-yl)methyl)-2-(5-((1-(2′-fluoro-[1,1′-biphenyl]-4-yl)ethyl)amino)-6-oxo-2-(thiazol-4-yl)pyrimidin-1(6H)-yl)acetamide]	< 100
C[C@@H](Nc1cnc(-c2ccccn2)n(CC(=O)NCc2cc3cnccc3[nH]2)c1=O)c1ccc(-c2ccccc2F)cc1 [Compound 447, (R)-N-((1H-pyrrolo[3,2-c]pyridin-2-yl)methyl)-2-(5-((1-(2′-fluoro-[1,1′-biphenyl]-4-yl)ethyl)amino)-6-oxo-2-(pyridin-2-yl)pyrimidin-1(6H)-yl)acetamide]	< 100
C[C@@H](Nc1cnc(N2CCCCC2)n(CC(=O)NCc2cc3cnccc3[nH]2)c1=O)c1ccc(Oc2ccccc2)cc1 [Compound 448, (R)-N-((1H-pyrrolo[3,2-c]pyridin-2-yl)methyl)-2-(6-oxo-5-((1-(4-phenoxyphenyl)-ethyl)amino)-2-(piperidin-1-yl)pyrimidin-1(6H)-yl)acet-amide]	100 to 1000
C[C@@H](Nc1ncc(-c2ccccn2)n(CC(=O)NCc2cc3cnccc3[nH]2)c1=O)c1ccc(-c2ccccc2F)cc1 [Compound 449, (R)-N-((1H-pyrrolo[3,2-c]pyridin-2-yl)methyl)-2-(3-((1-(2′-fluoro-[1,1′-biphenyl]-4-yl)ethyl)amino)-2-oxo-6-(pyridin-2-yl)pyrazin-1(2H)-yl)acetamide]	< 100
C[C@@H](Nc1cnc(C2=CCCCC2)n(CC(=O)NCc2cc3cnccc3[nH]2)c1=O)c1coc(-c2ccccc2)n1 [Compound 450, (R)-N-((1H-pyrrolo[3,2-c]pyridin-2-yl)methyl)-2-(2-(cyclohex-1-en-1-yl)-6-oxo-5-((1-(2-phenyloxazol-4-yl)-ethyl)amino)pyrimidin-1(6H)-yl)acetamide]	< 100
C[C@@H](Nc1cnc(-c2ccc(OCCCCCCCN)cc2)n(CC(=O)NCc2cc3cnccc3[nH]2)c1=O)c1ccc2oc3ccccc3c2c1 [Compound 451, (R)—N-((1H-Pyrrolo[3,2-c]pyridine-2-yl)methyl)-2-(2-(4-((7-aminoheptyl)oxy)phenyl)-5-((1-(dibenzo[b,d]furan-2-yl)ethyl)amino)-6-oxopyrimidin-1(6H)-yl)acetamide]	< 100
C[C@@H](Nc1cnc(-c2ccc(OCCOCCOCCN)cc2)n(CC(=O)NCc2cc3cnccc3[nH]2)c1=O)c1ccc2oc3ccccc3c2c1 [Compound 452, (R)-N-((1H-pyrrolo[3,2-c]pyridin-2-yl)methyl)-2-(2-(4-(2-(2-(2-aminoethoxy)ethoxy)-ethoxy)phenyl)-5-((1-(dibenzo [b,d]furan-2-yl)ethyl)amino)-6-oxopyrimidin-1(6H)-yl)-acetamide]	< 100
C[C@@H](Nc1cnc(N2CCCCC2)n(CC(=O)NCc2cc3cnccc3[nH]2)c1=O)c1cnc(-c2ccccc2)o1 [Compound 453, (R)—N-((1H-Pyrrolo[3,2-c]pyridine-2-yl)methyl)-2-(6-oxo-5-((1-(2-phenyloxazol-5-yl)ethyl)amino)-2-(piperidin-1-yl)pyrimidin-1(6H)-yl)acetamide]	< 100
O=C(Cn1c(-c2ccccc2)ncc(NCc2nnc(-c3ccccc3)s2)c1=O)NCc1cc2cnccc2[nH]1 [Compound 454, N-((1H-pyrrolo[3,2-c]pyridin-2-yl)methyl)-2-(6-oxo-2-phen-yl-5-(((5-phenyl-1,3,4-thiadia-zol-2-yl)methyl)amino)pyr-imidin-1(6H)-yl)acetamide]	< 100
Cc1cnc(CNc2cnc(-c3ccccc3)n(CC(=O)NCc3cc4cnccc4[nH]3)c2=O)o1 [Compound 455, N-((1H-pyrrolo[3,2-c]pyridin-2-yl)methyl)-2-(5-(((5-methyl-oxazol-2-yl)methyl)amino)-6-oxo-2-phenylpyrimidin-1(6H)-yl)acetamide]	< 100
O=C(Cn1c(-c2ccccc2)ncc(NCc2cc(-c3ccccc3F)on2)c1=O)NCc1cc2cnccc2[nH]1 [Compound 456, N-((1H-pyrrolo[3,2-c]pyridin-2-yl)methyl)-2-(5-(((5-(2-fluorophenyl)isoxazol-3-yl)-methyl)amino)-6-oxo-2-phen-ylpyrimidin-1(6H)-yl)acet-amide]	< 100
O=C(Cn1c(-c2ccccc2)ncc(NCc2cc(-c3ccccc3)no2)c1=O)NCc1cc2cnccc2[nH]1 [Compound 457, N-((1H-pyrrolo[3,2-c]pyridin-2-yl)methyl)-2-(6-oxo-2-phen-yl-5-(((3-phenylisoxazol-5-yl)methyl)amino)pyrimidin-1(6H)-yl)acetamide]	< 100
